Measurements from patent US20190210969A1, “INTRAESOPHAGEAL ADMINISTRATION OF TARGETED NITROXIDE AGENTS FOR PROTECTION AGAINST IONIZING IRRADIATION-INDUCED ESOPHAGITIS” (University of Pittsburgh - Of the Commonwealth System of …, priority 2010, published 2019).

Experiments:
[1] = Uptake of swallowed JP4-039 in esophageal SP cells incl. GFP+ marrow chimeric mice; type: in vivo, mouse
[2] = tested on: mice, 29 Gy upper body irradiation plus GFP+ male marrow; assay: Survival after 29 Gy upper body irradiation with GFP+ marrow injection on day 5; type: in vivo, mouse; conditions: given before 29 Gy; GFP+ marrow i.v. day 5; p=0.0315 (MnSOD-PL), p=0.0462 (JP4-039/F15)
Description: Bone marrow transplantation, esophageal excision and cell sorting. Five days after irradiation, the time shown to optimize marrow cell homing to the irradiated esophagus, mice received intravenous injection of 1.0×10^7 C57BL/6HNsd GFP+ male bone marrow cells prepared as single-cell suspension from donor male mice according to published methods (Niu Y, et al. Irradiated esophageal cells are protected from radiation-induced recombination by MnSOD gene therapy. Rad Res 173: 453-461, 2010 and Niu Y, et al. Intraesophageal MnSOD-plasmid liposome administration enhances engraftment and self-renewal capacity of bone marrow derived progenitors of esophageal squamous epithelium. Gene Therapy 15: 347-356, 2008). At serial time points after marrow transplantation, esophagus specimens were removed, and single cell suspensions prepared according to published methods (Id.). The esophagus cell suspensions were sorted for GFP+ cells. The number of GFP+ cells per 10^6 was calculated as described previously (Id.). (GFP+) cells were placed on slides, and stained for detection of donor cell markers (Id.).
Intraesophageal JP4-039/formulation improves survival through recovery of endogenous esophageal progenitor cells. […] Five groups of 15 mice each received 29 Gy to the upper body. One group received MnSOD-PL 24 hours prior to irradiation.

[3] = tested on: 32D cl 3 mouse hematopoietic progenitor cell line; assay: Irradiation survival curves of 32D cl 3 cells (colony assay); type: cell-based; conditions: for ñ (shoulder on the survival curve): 0 to 8 Gy
Experimental: Groups of 15 mice received intraperitoneal injection of 10 mg. per kilogram of each indicated GS-nitroxide compound or carrier (Cremphora plus alcohol at 1 to 1 ratio, then diluted 1 to 10 in distilled water). Mice received 10 mg per kilogram intra-peritoneal injection 24 hours prior to total body irradiation. Control mice received radiation alone. […] (P=0.0005) FIG. 6 is a graph showing that GS-nitroxide JP4-039 is an effective hematopoietic cell radiation mitigator when delivered 24 hr after irradiation. Irradiation survival curves were performed on cells from the 32D cl 3 mouse hematopoietic progenitor cell line, incubated in 10 μM JP4-039 for 1 hour before irradiation, or plated in methylcellulose containing 10 μM […] after irradiation. Cells were irradiated from 0 to 8 Gy, plated in 0.8% methylcellulose containing media, and incubated for 7 days at 37° C. Colonies of greater than 50 cells were counted and data analyzed by linear quadratic and single-hit, multi-target models.

[4] = Clearance of intravenously injected JP4-039 measured by EPR; type: in vivo, mouse; design: dose or concentration left out as unconfirmed
Description: FIGS. 13A-13B. Pharmacokinetics of clearance of JP4-039 intravenously injected into C57BL/6JHNsd mice in (FIG. 13A) plasma and (FIG. 13B) lung. […] Serum samples were collected and assayed. Each symbol represents an individual mouse. The methods for assay of nitroxide by EPR have been published previously (Borisenko G G, et al. J Am Chem Soc 4(30): 9221-9232, 2004 and Jiang J, et al. A mitochondria-targeted triphenylphosphonium-conjugated nitroxide functions as a radioprotector/mitigator. Radiat Res 172(6): 706-717, 2009).
Measurement of JP4-039 nitroxide in serum and in tissues by electron paramagnetic resonance. Electron paramagnetic resonance (EPR) spectra of nitroxide radicals in cells or in mitochondrial fractions were recorded after mixing with acetonitrile (1:1 v/v) after 5 min incubation with 2 mM K3Fe(CN)6 using a JEOL-RE1XEPR spectrometer (JEOL, USA, Inc., Peabody, Mass., USA) under the following conditions: 3350 G center field, 25 G scan range, 0.79 G field modulation, 20 mW microwave power, 0.1 s time constant, 4 min scan time. Under these experimental conditions, nitroxides were not detectably oxidized by […] to EPR-silent oxoamminium cations. Mitochondria-enriched fractions were obtained by differential centrifugation. […] Partitioning efficiency was calculated as a percentage of the initial signal. […] After that, samples were centrifuged at 10,000 g for 5 min, and the pellets washed twice with the incubation buffer and analyzed by EPR as described previously (Borisenko G G, et al. Nitroxides scavenge myeloperoxidase-catayzed thiyl radicals in model systems and in cells. J Am Chem Soc 4(30): 9221-9232, 2004 and Jiang J, et al. A mitochondria-targeted triphenylphosphonium-conjugated nitroxide functions as a radioprotector/mitigator. Radiat Res 172(6): 706-717, 200938-39).
Intravenous JP4-039 systemic pharmacokinetics and intraesophageal formulation mediated delivery to esophagus. […] JP4-039 was cleared from plasma by 10 min, but was detected in lung (and intestine) for over 30 minutes.

With `CC(C)C[C@@H](/C=C/CC(=O)NC1CC(C)(C)N([O])C(C)(C)C1)NC(=O)OC(C)(C)C` [JP4-039, TEMPO-4-yl-(S,E)-5-(tert-butoxycarbonylamino)-7-methyloct-3-enamide] the “uptake in GFP+ esophageal (SP) stem cells” value ([1]; GFP+ marrow chimeric mice) was “reaches GFP+ esophageal (SP) stem cells”, the “uptake in esophageal SP cells” value ([1]; preliminary data) was “reaches SP cells” and the survival [2] was “improved survival”. The “ñ (shoulder on the survival curve)” value ([3]; 10 μM for 1 hour before irradiation, cells alone 1.29±0.13, p=0.0109) was 5.25±0.84, the “survival of 32D c13 cells” value ([3]; 10 μM for one hour, 0-8 Gy irradiation, preliminary data) was “increased survival” and the “ñ (shoulder on the survival curve)” value ([3]; 10 μM in methylcellulose after irradiation, cells alone 1.29±0.13, p=0.0022) was 4.55±0.47. The “time detected in intestine” value [4] was “over 30 minutes”, the “time detected in lung” value [4] was “over 30 minutes” and the “time by which cleared from plasma” value ([4]; intravenous in 100 μl) was at most 10 min.
